# Laboratory results reported in EP4786466A1, “QUINAZOLINE DERIVATIVE, SALT THEREOF, AND PHARMACEUTICAL COMPOSITION COMPRISING SAME AS ACTIVE INGREDIENT” (Korea Research Institute of Chemical Technology, priority 2023, dated 2025).
# Read-outs that look alike come from different tables or passages of the source.
# How the values were obtained:
# in vitro = conditions: human
# Procedure: (§1) MCF7 breast cancer cell lines and MCF10A normal breast cancer cell lines were treated with serial dilutions of the compounds of the present invention ranging from 1 µM to 15.63 nM for 72 hours. Cell viability was measured by the WST-8 assay (Cyto XTM cell viability assay kit; LPS solution, Daejeon, Korea) according to the manufacturer's instructions.
# [1] = tested on: MCF7 breast cancer cell lines; assay: Cell viability analysis, WST-8 assay, MCF7; conditions: for viability at 1.1 µM: read-out: Cell viability (%) WST-8, MCF7, footnote d: concentration 1.1 µM, 72 hours; for viability at 1 µM: read-out: Cell viability (%) WST-8, MCF7 (1 µM), compound 1 µM, 72 hours; for viability at 1.25 µM: read-out: Cell viability (%) WST-8, MCF7, footnote a: concentration 1.25 µM, 72 hours
# Procedure: as §1
# [2] = target: T1, Recombinant GST-TAG-MASTL (Homo sapiens, UniProt Q96GX5); assay: HTRF-based kinase assay (HTRF KinEASE assay kit); type: biochemical; conditions: for activity at 1 µM: read-out: MASTL activity (%) HTRF (1 µM); for activity at 10 µM: footnote b: concentration 10 µM
# T1 construct: GST; purchased Thermo Fisher Scientific
# T1 sequence (Q96GX5 1-879): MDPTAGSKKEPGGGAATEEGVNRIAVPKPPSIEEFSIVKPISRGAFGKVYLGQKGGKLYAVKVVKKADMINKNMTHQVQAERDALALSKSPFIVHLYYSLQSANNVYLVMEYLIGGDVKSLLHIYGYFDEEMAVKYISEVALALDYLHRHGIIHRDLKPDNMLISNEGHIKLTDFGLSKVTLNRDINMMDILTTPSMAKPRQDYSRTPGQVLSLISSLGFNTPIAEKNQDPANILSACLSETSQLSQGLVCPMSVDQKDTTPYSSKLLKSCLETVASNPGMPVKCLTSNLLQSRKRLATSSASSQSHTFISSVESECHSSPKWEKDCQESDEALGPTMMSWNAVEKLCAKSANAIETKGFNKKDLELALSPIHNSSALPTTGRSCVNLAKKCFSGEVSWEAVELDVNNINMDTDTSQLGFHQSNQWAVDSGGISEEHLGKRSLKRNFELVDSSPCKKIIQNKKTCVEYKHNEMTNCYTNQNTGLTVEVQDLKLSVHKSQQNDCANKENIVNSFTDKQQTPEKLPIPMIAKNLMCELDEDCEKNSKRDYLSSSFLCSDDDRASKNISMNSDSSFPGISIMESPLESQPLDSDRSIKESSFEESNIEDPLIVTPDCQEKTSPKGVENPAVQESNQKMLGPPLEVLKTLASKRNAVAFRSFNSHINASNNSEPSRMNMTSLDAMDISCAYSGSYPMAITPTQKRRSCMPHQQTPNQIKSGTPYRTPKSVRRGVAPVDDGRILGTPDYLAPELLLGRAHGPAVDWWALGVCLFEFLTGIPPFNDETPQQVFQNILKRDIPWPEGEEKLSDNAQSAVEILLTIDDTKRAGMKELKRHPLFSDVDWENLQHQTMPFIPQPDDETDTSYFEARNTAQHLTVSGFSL
# Description: Recombinant GST-TAG-MASTL (Thermo Fisher Scientific, MA, USA) was used for HTRF-based kinase assays. The HTRF KinEASE assay kit (CisBio, MA, USA) was used according to the manufacturer's instructions.
# pENSA = pENSA level by immunofluorescence (described method: in vitro kinase analysis with GST-tag-MASTL and His-tag-ENSA); type: cell-based
# Procedure: Two recombinant GST-tag-MASTL (Thermo Fisher Scientific) and His-tag-ENSA (Sino Biological Inc., Beijing, China) were used for in vitro kinase analysis. In vitro kinase analysis was performed as described in the literature [Front Oncol 2020, 10, 571601, 39-202021-10-20doi:10.3389/fonc.2020.571601.].
# Phosphorylated ENSA (pENSA), which is activated by phosphorylation by MASTL, can be utilized as a biomarker as it is expected that its activity will be inhibited along with the inhibition of MASTL. In the cell viability assay, MCF7 refers to a breast cancer cell line, and MCF10A refers to a normal breast […] cell line.
# [3] = read-out: MASTL activity (%) HTRF
smiles,measurement,setting,value
"Cc1nn(C)c(C)c1Nc1nc(Nc2ccc(CC#N)cc2)nc2ccccc12 [3c, 2-(4-((4-((1,3,5-trimethyl-1G-pyrazol-4-yl)amino)quinazolin-2-yl)amino)phenyl)acetonitrile]",viability at 1.1 µM,in vitro; mcf10a cells,115%
same,viability at 1.1 µM,"[1]; Homo sapiens, MCF7, 72 h",110%
same,activity at 1 µM,[2],123%
"CNC(=O)c1ccc(Nc2nc(Nc3cc(C4CC4)[nH]n3)c3ccccc3n2)cc1 [4ae, 4-((4-((5-cyclopropyl-1G-pyrazol-3-yl)amino)quinazolin-2-yl)amino)-M-methylbenzamide]",viability at 1 µM,in vitro; mcf10a cells,70.5%
same,viability at 1 µM,"[1]; Homo sapiens, MCF7, 72 h",72.8%
same,activity at 1 µM,[2]; compound 1 µM,41.7%
"CCNC(=O)c1ccc(Nc2nc(Nc3cc(C4CC4)[nH]n3)c3ccccc3n2)cc1 [4af, 4-((4-((5-cyclopropyl-1G-pyrazol-3-yl)amino)quinazolin-2-yl)amino)-M-ethylbenzamide]",viability at 1 µM,in vitro; mcf10a cells,66.5%
same,viability at 1 µM,"[1]; Homo sapiens, MCF7, 72 h",66.6%
same,activity at 1 µM,[2]; compound 1 µM,49.6%
"CC(C)(C)OC(=O)N1CC2C(C1)C2Nc1nc(Nc2cc(C3CC3)[nH]n2)c2ccccc2n1 (stereo not drawn) [4ag, sdqs-butyl 6-((4-((5-cyclopropyl-1G-pyrazol-3-yl)amino)quinazolin-2-yl)amino)-3-azabicyclo[3.1.0]hexane-3-carboxylate]",viability at 1 µM,in vitro; mcf10a cells,74.5%
same,viability at 1 µM,"[1]; Homo sapiens, MCF7, 72 h",56.4%
same,activity at 1 µM,[2]; compound 1 µM,67.1%
"Cc1n[nH]c(C)c1Nc1nc(Nc2ccc(CC#N)cc2)nc2ccccc12 [compound 3d, 2-(4-((4-((3,5-dimethyl-1G-pyrazol-4-yl)amino)quinazolin-2-yl)amino)phenyl)acetonitrile]",viability at 1.1 µM,in vitro; mcf10a cells,101%
same,viability at 1.1 µM,"[1]; Homo sapiens, MCF7, 72 h",132%
same,activity at 1 µM,[2],93.7%
"N#CCc1ccc(Nc2nc(Nc3cn[nH]c3)c3ccccc3n2)cc1 [compound 3f, 2-(4-((4-((1G-pyrazol-4-yl)amino)quinazolin-2-yl)amino)phenyl)acetonitrile]",viability at 1.1 µM,in vitro; mcf10a cells,98.3%
same,viability at 1.1 µM,"[1]; Homo sapiens, MCF7, 72 h",117%
same,activity at 1 µM,[2],92.5%
"CC(C)S(=O)(=O)c1ccccc1Nc1nc(Nc2ccc(CC#N)cc2)nc2ccccc12 [compound 3g, 2-(4-((4-((2-(isopropylsulfonyl)phenyl)amino)quinazolin-2-yl)amino)phenyl)acetonitrile]",viability at 1.1 µM,in vitro,99.7%
same,viability at 1.1 µM,"[1]; Homo sapiens, MCF7, 72 h",109%
same,activity at 3.3 µM,[2]; footnote c: concentration 3.3 µM,127%
"N#CCc1ccc(Nc2nc(Nc3ccc(Cl)nn3)c3ccccc3n2)cc1 [compound 3i, 2-(4-((4-((6-chloropyridazin-3-yl)amino)quinazolin-2-yl)amino)phenyl)acetonitrile]",viability at 1 µM,in vitro,51.8%
same,viability at 1 µM,"[1]; Homo sapiens, MCF7, 72 h",95.6%
same,activity at 1 µM,[2]; compound 1 µM,126%
"N#CCc1ccc(Nc2nc(NC3=NC(=O)CS3)c3ccccc3n2)cc1 [compound 3j, 2-(4-((4-((4-oxo-4,5-dihydrothiazol-2-yl)amino)quinazolin-2-yl)amino)phenyl)acetonitrile]",viability at 1 µM,in vitro,84.2%
same,viability at 1 µM,"[1]; Homo sapiens, MCF7, 72 h",108%
same,activity at 1 µM,[2]; compound 1 µM,92.5%
"N#CCc1ccc(Nc2nc(Nc3ccccc3F)c3ccccc3n2)cc1 [compound 3k, 2-(4-((4-((2-fluorophenyl)amino)quinazolin-2-yl)amino)phenyl)acetonitrile]",viability at 1 µM,in vitro,96.6%
same,viability at 1 µM,"[1]; Homo sapiens, MCF7, 72 h",120%
same,activity at 1 µM,[2]; compound 1 µM,99.1%
"N#CCc1ccc(Nc2nc(Nc3nnc(C4CC4)s3)c3ccccc3n2)cc1 [compound 3l, 2-(4-((4-((5-cyclopropyl-1,3,4-thiadiazol-2-yl)amino)quinazolin-2-yl)amino)phenyl)acetonitrile]",viability at 1 µM,in vitro,104%
same,viability at 1 µM,"[1]; Homo sapiens, MCF7, 72 h",80.5%
same,activity at 1 µM,[2]; compound 1 µM,114%
"N#CCc1ccc(Nc2nc(Nc3cccc(N)c3)c3ccccc3n2)cc1 [compound 3n, 2-(4-((4-((3-aminophenyl)amino)quinazolin-2-yl)amino)phenyl)acetonitrile]",viability at 1 µM,in vitro,95.2%
same,viability at 1 µM,"[1]; Homo sapiens, MCF7, 72 h",117%
same,activity at 1 µM,[2]; compound 1 µM,125%
"CNc1nc(Nc2cc(C3CC3)[nH]n2)c2ccccc2n1 [compound 4cb, N^4-(5-cyclopropyl-1H-pyrazol-3-yl)-N^2-methylquinazoline-2,4-diamine]",viability at 1.25 µM,in vitro,102%
same,viability at 1.25 µM,"[1]; Homo sapiens, MCF7, 72 h",87.5%
same,activity at 10 µM,[2]; [3],53.1%
"CC(C)(C)OC(=O)N1CC2C(C1)C2Nc1nc(Nc2cc(C3CC3)[nH]n2)c2ccccc2n1 (stereo not drawn) [compound 4cg, tert-butyl 6-((4-((5-cyclopropyl-1H-pyrazol-3-yl)amino)quinazolin-2-yl)amino)-3-azabicyclo[3.1.0]hexane-3-carboxylate]",viability at 1 µM,in vitro,117%
same,"Cell viability (%) WST-8, MCF7 (1 µM)","[1]; compound 1 µM, 72 hours, 1 µM",73.6%
same,MASTL activity (%) HTRF (1 µM),"[2]; compound 1 µM, 1 µM",76.4%
"N#Cc1ccc(CNc2nc(Nc3cc(C4CC4)[nH]n3)c3ccccc3n2)cc1 [compound 4ch, 4-(((4-((5-cyclopropyl-1G-pyrazol-3-yl)amino)quinazolin-2-yl)amino)methyl)benzonitrile]",viability at 1 µM,in vitro; mcf10a cells,32%
same,viability at 1 µM,"[1]; Homo sapiens, MCF7, 72 h",73.6%
same,activity at 1 µM,[2],43%
"N#Cc1ccc(Nc2nc(Nc3cc(C4CC4)[nH]n3)c3ccccc3n2)cc1 [compound 4d, 4-((4-((5-cyclopropyl-1G-pyrazol-3-yl)amino)quinazolin-2-yl)amino)benzonitrile]",viability at 1.25 µM,in vitro; mcf10a cells,3.2%
same,viability at 1.25 µM,"[1]; Homo sapiens, MCF7, 72 h",5.6%
same,selectivity for breast cancer cells over normal cells in the cell viability assay,[1]; MCF7 versus MCF10A,selectively inhibit only breast cancer cells
same,IC50,[2],625 nM
same,activity at 1.25 µM,[2]; [3],32.6%
"CC(C)NC(=O)N1CC2CC1CN2c1nc(Nc2cc(C3CC3)[nH]n2)c2ccccc2n1 (stereo not drawn) [compound 15b, 5-(4-((5-cyclopropyl-1G-pyrazol-3-yl)amino)quinazolin-2-yl)-M-isopropyl-2,5-diazabicyclo[2.2.1]heptane-2-carboxamide]",viability at 1 µM,in vitro; mcf10a cells,77.2%
same,viability at 1 µM,"[1]; Homo sapiens, MCF7, 72 h",75.3%
"O=S(=O)(c1ccc2ccccc2c1)N1CC2CC1CN2c1nc(Nc2cc(C3CC3)[nH]n2)c2ccccc2n1 (stereo not drawn) [compound 15y, M-(5-cyclopropyl-1G-pyrazol-3-yl)-2-(5-(naphthalen-2-ylsulfonyl)-2,5-diazabicyclo[2.2.1]heptan-2-yl)quinazolin-4-amine]",viability at 10 µM,"[1]; Homo sapiens, MCF7, 72 h, read-out: Cell viability (%) WST-8, MCF7, footnote b: concentration 10 µM, 72 hours",64.1%
same,IC50,"[1]; Homo sapiens, MCF7, 72 h, read-out: IC50 Cell viability (MCF7)",8.2 µM
same,IC50,"[2]; HTRF, read-out: IC50(nM) MASTL activity",928 nM
same,activity at 10 µM,[2]; [3],18.5%
same,pENSA (%) Immunofluor ecense,pENSA; footnote b: concentration 10 µM,35.5^b %
same,IC50,"pENSA; unit µM, read-out: IC50 pENSA",6.9 µM
"Cc1cc(Nc2nc(N3CC4CC3CN4C(=O)NC(C)C)nc3ccccc23)n[nH]1 (stereo not drawn) [compound 27a, M-isopropyl-5-(4-((5-methyl-1G-pyrazol-3-yl)amino)quinazolin-2-yl)-2,5-diazabicyclo[2.2.1]heptane-2-carboxamide]",viability at 1 µM,in vitro; mcf10a cells,90.7%
same,viability at 1 µM,"[1]; Homo sapiens, MCF7, 72 h",95.6%
"Cc1cc(Nc2nc(N3CC4CC3CN4C(=O)Nc3ccccc3)nc3ccccc23)n[nH]1 (stereo not drawn) [compound 27b, 5-(4-((5-methyl-1G-pyrazol-3-yl)amino)quinazolin-2-yl)-M-phenyl-2,5-diazabicyclo[2.2.1]heptane-2-carboxamide]",viability at 1 µM,in vitro; mcf10a cells,36.1%
same,viability at 1 µM,"[1]; Homo sapiens, MCF7, 72 h",83.2%
"CC(C)NC(=O)N1CC2CC1CN2c1nc(Nc2cn[nH]c2)c2ccccc2n1 (stereo not drawn) [compound 28a, 5-(4-((1G-pyrazol-4-yl)amino)quinazolin-2-yl)-M-isopropyl-2,5-diazabicyclo[2.2.1]heptane-2-carboxamide]",viability at 1.25 µM,in vitro; mcf10a cells,93.9%
same,viability at 1 µM,"[1]; Homo sapiens, MCF7, 72 h",99%
"O=C(Nc1ccccc1)N1CC2CC1CN2c1nc(Nc2cn[nH]c2)c2ccccc2n1 (stereo not drawn) [compound 28b, 5-(4-((1G-pyrazol-4-yl)amino)quinazolin-2-yl)-M-phenyl-2,5-diazabicyclo[2.2.1]heptane-2-carboxamide]",viability at 1 µM,in vitro; mcf10a cells,37%
same,viability at 1 µM,"[1]; Homo sapiens, MCF7, 72 h",91.2%
